According to patent publication US20240150363A1, “COELENTERAZINE ANALOGUES” (Promega Corporation, priority 2022, published 2024):
One block for each molecule: values may come before it.

Columns and labels:
[1] = Stability of formulated Compound 6 (P-407 cake) in reconstitution buffers, LC-MS; assay type: physicochemical
Protocol: Experiments were conducted during development of embodiments herein to evaluate the stability of Compound 6 in various reconstitution buffer formulation. Briefly, 12 mg of Poloxamer 407 (P-407) was melted at 70˜75° C., and 4.2 μmol of Compound 6 was dissolved in 1 mL EtOH, followed by transferring the resulting solution to the melted P-407. The resulting mixture was rotated at 65˜75° C. to afford a homogeneous solution. The resulting solution was concentrated in vacuo and resuspended in 6 ml MQ water. 1 mL aliquots of the resuspended Compound 6 was then distributed into sample vials, frozen, and lyophilized to afford a formulated cake. Sample formulated cakes were then reconstituted in DPBS, HEPES, or Tris (pH 6.5, 7.5, or 8.0) buffers. Stability and purity were determined by LC-MS.

[2] = Systematic stability study of formulated Compound 6 reconstitution in buffers, LC-MS; assay type: physicochemical
Protocol: In addition to the stability experiments in Example 3, an additional systematic, controlled, and comprehensive stability study was conducted to evaluate the stability of formulated Compound 6 in various buffer formulation. Briefly, 4.2 μmol of Compound 6 was reconstituted in 1 mL of each buffer at the concentration and pH outlined in Table 1. Concentration and purity were determined by LC-MS. Briefly, 1 μL of sample was injected into an Eclipse RRHD C8 (50×2; 1 mm; 1.8 micron; λ=254 nm) with an aqueous mobile phase of 0.1% TFA in Nanopure water and an organic mobile phase of acetonitrile.

NLuc-HaloTag fusion [3] = target: T1, NLuc-HaloTag fusion (Oplophorus gracilirostris, UniProt Q9GV45, A31E/A60N/A81I/F95D/I117V/K70R/L54V/L99Q/M102K/N193R/P142E/Q151K/Q38R/Q45L/V71I/Y165I); assay: Total bioluminescence of purified NLuc-HaloTag fusion with substrate; assay type: biochemical; conditions: purified NLuc-HaloTag fusion 6 nM, substrate 20 μM, 1 min; compared to Furimazine and FluoroFurimazine
T1 construct: HaloTag (fusion partner)
Protocol: (§1) Experiments were conducted during development of embodiments herein to evaluate the influence of Furimazine analogs on the intensity of bioluminescence produced by either purified NLuc-HaloTag fusion or purified chimera (i.e., HT178-cpNLuc-179, generated by insertion of cpNLuc into HaloTag). Briefly, purified NLuc-HaloTag fusion or chimera was diluted in TBS+0.1% BSA to a final concentration of 6 nM, treated with substrate at a final concentration of 20 μM, and incubated for 1 min before measurements of total bioluminescence on a GloMax® Discover plate reader (Promega; n=3) or measurements of bioluminescence intensity across 400-600 nm on an Infinite M1000 plate reader (Tecan; n=1).

[4] = tested on: chimera (HT178-cpNLuc-179); assay: Total bioluminescence of purified chimera with substrate; assay type: biochemical; conditions: purified chimera 6 nM, substrate 20 μM, 1 min; compared to Furimazine and FluoroFurimazine
Protocol: as §1

NLuc-HaloTag fusion [5] = target: T1, NLuc-HaloTag fusion; assay: Bioluminescence of HeLa cells transiently expressing NLuc-HaloTag fusion; assay type: cell-based; conditions: substrate 10 μM, 1 min, compared to Furimazine and FluoroFurimazine
Protocol: (§2) Additional experiments were conducted during development of embodiments herein to evaluate the influence of Furimazine analogs on the intensity of bioluminescence produced by transiently expressed NLuc-HaloTag fusion or chimera (i.e., HT178-cpNLuc-179, generated by insertion of cpNLuc into HaloTag). Briefly, HeLa cells diluted to 2.2×10^5 cells/mL in OptiMEM+2% serum were transfected with DNA encoding either NLuc-HaloTag fusion or chimera, plated in 96-well at 90 μL/well, and incubated overnight at 37° C.+5% CO2. Next day, cells were treated with substrate at a final concentration of 10 μM and incubated for 1 min before measurements of total bioluminescence on a GloMax® Discover plate reader (Promega; n=3) or measurements of bioluminescence intensity across 400-600 nm on an Infinite M1000 plate reader (Tecan; n=1).

[6] = tested on: chimera (HT178-cpNLuc-179); assay: Bioluminescence of HeLa cells transiently expressing chimera; assay type: cell-based; conditions: substrate 10 μM, 1 min, compared to Furimazine and FluoroFurimazine
Protocol: as §2

[7] = reconstituted using glycerol (2%)

T1 sequence (Q9GV45 other isoform, or with tags, fused parts or gaps with the stated changes): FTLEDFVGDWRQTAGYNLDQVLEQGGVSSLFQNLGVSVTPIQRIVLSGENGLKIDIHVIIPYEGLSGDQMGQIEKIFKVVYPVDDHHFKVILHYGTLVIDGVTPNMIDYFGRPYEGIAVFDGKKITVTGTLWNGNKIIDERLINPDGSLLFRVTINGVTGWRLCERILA

- stability and purity ([1]; reconstituted in DPBS): lowest stability and purity
- purity after 3 h ([1]; reconstituted in HEPES): about 50%
- stability ([1]; reconstituted in HEPES): improved stability compared to DPBS
- purity after 3 h ([1]; reconstituted in Tris buffer): ~90%
- stability ([1]; reconstituted in Tris buffer): highest stability
- preservation based on purity and concentration data ([2]; in Tris (pH=8) buffer): well-preserved
- preservation based on purity and concentration data ([2]; in saline): well-preserved
- preservation based on purity and concentration data ([2]; in water): well-preserved
- precipitation / solubility ([2]; reconstituted using DPBS (pH 7.0)): visible precipitation
- precipitation / solubility ([2]; reconstituted using Tris (pH=6.5)): visible precipitation
- purity over a 6-hour period ([2]; reconstituted using Tris (pH=8)): greater than 90%
- purity over a 6-hour period ([2]; reconstituted using acetate (sodium acetate pH 5.2)): greater than 90%
- precipitation / solubility ([2]; reconstituted using bicarbonate (pH 9.5)): visible precipitation
- purity over a 6-hour period ([2]; reconstituted using citrate (pH 6.0)): greater than 90%
- precipitation / solubility [2, 7]: visible precipitation
- purity over a 6-hour period [2, 7]: greater than 90%
- purity over a 6-hour period ([2]; reconstituted using saline (0.9%)): greater than 90%
- purity over a 6-hour period ([2]; reconstituted using water): greater than 90%
SMILES: O=c1c(Cc2ccco2)nc2c(Cc3ccccc3F)[nH]c(-c3cccc(F)c3F)cn1-2 [Compound 6, 6-(2,3-difluorophenyl)-8-(2-fluorobenzyl)-2-(furan-2-ylmethyl)imidazo[1,2-a]pyrazin-3(7H)-one]

SMILES: Cc1ccc(Cc2nc3c(Cc4ccccc4F)[nH]c(-c4cccc(F)c4F)cn-3c2=O)o1 [Compound 10, 6-(2,3-difluorophenyl)-8-(2-fluorobenzyl)-2-((5-methylfuran-2-yl)methyl)imidazo[1,2-a]pyrazin-3(7H)-one]
- bioluminescence signal as a substrate (NLuc-HaloTag fusion [3]): significantly brighter signal
- bioluminescence signal as a substrate [4]: significantly brighter signal
- bioluminescence signal as a substrate (NLuc-HaloTag fusion [5]): significantly brighter signal
- bioluminescence signal as a substrate [6]: significantly brighter signal
